Results published in EP2839831A1, “Modulators of the unconventional secretory pathway for use in the treatment of Alexander disease” (Rheinische Friedrich-Wilhelms-Universität Bonn, priority 2013, dated 2015).

Test system: secretion of endogenous insulin-degrading enzyme (IDE)
Assay: Secretion assay: effect of lovastatin on IDE secretion in COS-7 cells transfected with GFAP-ΔEx4 (Western immunoblot, ratio of IDE in medium to IDE in lysates)
Format: cell-based, monkey
Details: Primates, 5 µM lovastatin for 15 hours, 36 hours post transfection, versus DMSO vehicle, read-out: increase of IDE secretion (ratio of IDE in the medium to IDE in the lysates) compared to GFAP-ΔEx4
Procedure: COS-7 cells, a fibroblast-like cell line from monkey kidney tissue (ATCC, USA), were cultured in Dulbecco's Modified Eagle Medium (DMEM) (Life Technologies) containing 10% Fetal calf serum (FCS) (Life Technologies) and 1% Penicillin/Streptomycin (PS) (Life Technologies) (DMEM +/+) and splitted into new dishes (Coming). For all experiments cells were counted by using a Neubauer counting chamber. To estimate cell number (cells/ml), the average number from four big squares of the Neubauer chamber was multiplied by 10'000 and the cell suspension was diluted to the desired cell concentration. […]
The effect of statins on the secretion of IDE disturbed by Alexander disease-causing mutation in the 2A rod region of GFAP was determined by cell transfection and pharmacological treatment in COS-7 cells.
Cells were seeded in 6 well plates day before the transfection to a 50% confluence in DMEM medium supplemented with 10% FCS/1% PS. […] Proteins were separated by sodium dodecyl sulfate-polyacrylamide gel electrophoresis (SDS-PAGE), transferred to nitrocellulose membranes (Whatman), and detected by Western immunoblotting using enhanced chemiluminescence detection (ChemiDoc XRS, Bio-Rad). Signals were quantified with Quantity One Software (Bio-Rad).

Molecule CC[C@H](C)C(=O)O[C@H]1C[C@@H](C)C=C2C=C[C@H](C)[C@H](CC[C@@H]3C[C@@H](O)CC(=O)O3)[C@H]21 [lovastatin, [(1S,3R,7S,8S,8aR)-8-[2-[(2R,4R)-4-hydroxy-6-oxooxan-2-yl]ethyl]-3,7-dimethyl-1,2,3,7,8,8a-hexahydronaphthalen-1-yl] (2S)-2-methylbutanoate] has an activation at 5 µM of ~100%.
